SMILES strings stand for the structures. The source made the active and inactive calls. The calls are words filed in the database; no cut-off is given here. Where only a bound is given, the exact number is not on record here.

Assay [1] deals with T1, Histone-lysine N-methyltransferase EHMT2 (Homo sapiens) (UniProt Q96KQ7).
T1 sequence (whole entry): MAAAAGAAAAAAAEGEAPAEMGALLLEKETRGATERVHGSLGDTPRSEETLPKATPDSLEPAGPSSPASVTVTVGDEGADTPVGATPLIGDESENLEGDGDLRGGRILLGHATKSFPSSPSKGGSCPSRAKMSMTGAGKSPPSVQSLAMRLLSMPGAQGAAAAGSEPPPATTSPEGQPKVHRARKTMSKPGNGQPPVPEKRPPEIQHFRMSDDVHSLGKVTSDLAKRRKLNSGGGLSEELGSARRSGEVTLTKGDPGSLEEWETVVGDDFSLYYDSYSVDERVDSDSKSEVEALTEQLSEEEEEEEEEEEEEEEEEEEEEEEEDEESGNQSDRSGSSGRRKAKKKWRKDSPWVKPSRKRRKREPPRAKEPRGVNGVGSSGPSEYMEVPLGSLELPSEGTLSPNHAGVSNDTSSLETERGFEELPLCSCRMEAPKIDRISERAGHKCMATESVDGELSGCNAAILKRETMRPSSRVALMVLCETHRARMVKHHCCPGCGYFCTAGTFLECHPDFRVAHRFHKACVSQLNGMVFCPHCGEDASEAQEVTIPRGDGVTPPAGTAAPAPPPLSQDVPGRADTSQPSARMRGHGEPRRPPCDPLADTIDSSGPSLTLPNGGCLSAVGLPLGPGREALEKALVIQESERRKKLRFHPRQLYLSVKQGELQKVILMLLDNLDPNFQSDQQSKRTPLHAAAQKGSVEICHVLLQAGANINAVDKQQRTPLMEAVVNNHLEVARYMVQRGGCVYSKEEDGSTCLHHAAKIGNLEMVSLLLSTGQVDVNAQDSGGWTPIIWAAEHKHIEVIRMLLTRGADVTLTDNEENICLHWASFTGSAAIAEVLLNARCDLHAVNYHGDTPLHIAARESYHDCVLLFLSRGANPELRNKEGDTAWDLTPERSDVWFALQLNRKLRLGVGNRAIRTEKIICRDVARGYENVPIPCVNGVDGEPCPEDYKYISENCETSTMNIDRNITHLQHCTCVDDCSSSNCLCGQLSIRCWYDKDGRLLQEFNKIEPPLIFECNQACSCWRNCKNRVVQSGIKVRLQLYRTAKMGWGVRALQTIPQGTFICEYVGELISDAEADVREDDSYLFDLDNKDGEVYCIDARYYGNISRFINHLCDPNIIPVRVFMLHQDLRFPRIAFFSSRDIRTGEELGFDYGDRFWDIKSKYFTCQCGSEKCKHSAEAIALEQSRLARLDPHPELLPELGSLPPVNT
Kind of assay: Induction of wild type recombinant human histone lysine methyltransferase G9a (913 to 1193 residues) protein unfolding at 100 uM by circular dichroism analysis. For orientation: Circular dichroism is the unequal absorption of left and right circularly polarised light.

Assay [2] concerns the target T1, Histone-lysine N-methyltransferase EHMT2 (Homo sapiens). Kind of assay: Inhibition of wild type recombinant human histone lysine methyltransferase G9a (913 to 1193 residues) expressed in Escherichia coli Rosetta BL21 DE3 PlysS assessed as zinc ions ejection from Cys4-Zn finger at >50 uM after 1 hr by circular dichroism analysis.
The target of assay [3] is T2, Histone-lysine N-methyltransferase EHMT1 (Homo sapiens, UniProt Q9H9B1).
T2 sequence (Q9H9B1 whole entry): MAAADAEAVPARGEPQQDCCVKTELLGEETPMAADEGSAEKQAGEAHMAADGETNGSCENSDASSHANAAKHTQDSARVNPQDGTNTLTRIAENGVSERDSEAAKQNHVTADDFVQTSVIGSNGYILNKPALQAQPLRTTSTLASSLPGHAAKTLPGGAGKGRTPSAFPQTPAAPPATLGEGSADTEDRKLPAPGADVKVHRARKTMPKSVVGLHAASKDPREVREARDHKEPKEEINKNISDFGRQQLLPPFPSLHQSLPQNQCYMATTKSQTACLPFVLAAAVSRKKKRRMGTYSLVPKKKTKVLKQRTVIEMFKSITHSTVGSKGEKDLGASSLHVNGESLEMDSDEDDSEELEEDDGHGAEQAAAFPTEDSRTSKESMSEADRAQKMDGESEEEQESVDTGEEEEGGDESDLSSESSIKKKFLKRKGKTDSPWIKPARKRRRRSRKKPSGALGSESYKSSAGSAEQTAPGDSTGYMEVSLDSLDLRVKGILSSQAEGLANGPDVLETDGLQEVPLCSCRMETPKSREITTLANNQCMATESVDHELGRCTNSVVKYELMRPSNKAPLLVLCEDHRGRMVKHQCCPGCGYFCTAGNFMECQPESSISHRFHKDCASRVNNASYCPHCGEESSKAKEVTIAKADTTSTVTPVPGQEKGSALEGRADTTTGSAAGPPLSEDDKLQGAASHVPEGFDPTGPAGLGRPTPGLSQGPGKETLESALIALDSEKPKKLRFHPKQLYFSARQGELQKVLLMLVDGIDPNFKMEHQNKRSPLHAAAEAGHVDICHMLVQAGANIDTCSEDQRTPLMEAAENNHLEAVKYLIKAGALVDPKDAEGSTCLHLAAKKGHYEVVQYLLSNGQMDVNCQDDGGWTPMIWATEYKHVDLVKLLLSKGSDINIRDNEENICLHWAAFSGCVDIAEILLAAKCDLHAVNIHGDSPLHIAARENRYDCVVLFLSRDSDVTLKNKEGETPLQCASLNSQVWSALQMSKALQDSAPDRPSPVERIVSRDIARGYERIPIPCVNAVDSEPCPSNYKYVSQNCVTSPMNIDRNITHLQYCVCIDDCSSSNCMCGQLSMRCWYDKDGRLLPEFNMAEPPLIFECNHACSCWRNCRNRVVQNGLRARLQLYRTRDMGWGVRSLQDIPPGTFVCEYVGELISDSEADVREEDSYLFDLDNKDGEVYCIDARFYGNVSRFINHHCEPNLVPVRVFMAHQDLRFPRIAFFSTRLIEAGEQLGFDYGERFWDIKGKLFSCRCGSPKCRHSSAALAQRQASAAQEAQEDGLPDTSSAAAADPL
Kind of assay: Inhibition of wild type recombinant human histone lysine methyltransferase GLP (951 to 1235 residues) expressed in Escherichia coli Rosetta BL21 DE3 PlysS using ARTKQTARKSTGGKA as substrate preincubated for 5 mins followed by substrate/SAM addition measured after 60 mins by MALDI-TOF MS analysis.

In assay [4] the target is T3, Histone-lysine N-methyltransferase EHMT1 (Homo sapiens) (UniProt Q9H9B1).
T3 sequence (whole entry): T2 sequence (Q9H9B1 whole entry)
Kind of assay: Induction of wild type recombinant human histone lysine methyltransferase GLP (951 to 1235 residues) protein unfolding at 100 uM by circular dichroism analysis.

The target in assay [5] is T3, Histone-lysine N-methyltransferase EHMT1 (Homo sapiens). Description: Inhibition of wild type recombinant human histone lysine methyltransferase GLP (951 to 1235 residues) expressed in Escherichia coli Rosetta BL21 DE3 PlysS at 100 uM using ARTKQTARKSTGGKA as substrate preincubated for 5 mins followed by substrate/SAM addition measured after 60 mins by MALDI-TOF MS analysis.

Take `CCN(CC)C(=S)SSC(=S)N(CC)CC`: the result in assay [1] and in assay [4] was Active. Besides, the inhibition entry in assay [2] was “Active”. The IC50 in assay [3] amounted to 1600 nM. In addition, in assay [5], the inhibition is more than 50%.
For the molecule `O=c1c2ccccc2[se]n1-c1ccccc1` [EBSELEN], the result in assay [1] and in assay [4] was Active. Besides, in assay [3], the half-maximal inhibitory concentration (IC50) came out at 730 nM. The inhibition in assay [5] is more than 50%.

In general, inhibition refers to how much of the control response was suppressed. One may read the IC50 as the concentration that gives 50% inhibition.

The record behind these values is ChEMBL document CHEMBL4184305, “Inhibition of histone lysine methyltransferases G9a and GLP by ejection of structural Zn(II)” (Bioorg Med Chem Lett, 2018).
